Publication PMC6680932, “Structure–Antioxidant–Antiproliferative Activity Relationships of Natural C7 and C7–C8 Hydroxylated Flavones and Flavanones” (Antioxidants, 2019)
Like-named read-outs stand apart in the source and are kept apart here.

Legend:
[1] = ABTS radical cation decolorization assay; conditions: 6 min incubation, 734 nm; mean ± SD
Experimental: (§1) The antioxidant capacity of flavonoids was measured in three separate tests: ABTS, DPPH, and ferric ion reducing antioxidant power (FRAP) assays (ABTS, DPPH, and FRAP reagents from Sigma-Aldrich). All tested compounds were dissolved in DMSO. All determinations were performed in triplicate. Standard curves were prepared for all assays using different concentrations of Trolox (6-hydroxy-2,5,7,8-tetramethylchroman-2-carboxylic acid) (Sigma-Aldrich). Trolox is a water-soluble analogue of vitamin E with high antioxidant activity, commonly used as a control and a reference in studies of antioxidant activity. The results were expressed as the equivalent of μmol Trolox per μmol of the test compound. The absorbance was measured using a UV-2401 PC spectrophotometer (Shimadzu, Kyoto, Japan). Concentrations of the tested samples were in the range from 50 µg/mL to 10 mg/mL.
The radical cation scavenging capacity of the tested compounds was examined against ABTS^+ (2,2’-azino-bis(3-ethylbenzo-thiazoline-6-sulfonic acid) according to the procedure described by Re et al. with some modifications. The test sample (30 μL) of known concentration was mixed in a polystyrene cuvette with 3 mL of ABTS solution with a measured absorption of 0.700 at a wavelength of λ = 734 nm. After 6 min of incubation, the absorption of samples was recorded. The ABTS reagent was freshly prepared before each experiment.

[2] = DPPH free radical scavenging activity assay; conditions: 10 min, 517 nm; mean ± SD
Experimental: as §1
The DPPH (2,2-diphenyl-1-picrylhydrazyl) radical scavenging activity of samples was determined according to the method described by Yen and Chen with some modifications. Samples (0.1 mL) of known concentration were mixed in polystyrene cuvettes with 2 mL of 0.04 mM DPPH in ethanol and 0.4 mL of ethanol. The absorbance was measured after 10 min at λ = 517 nm. The DPPH reagent was freshly prepared before each experiment.

[3] = FRAP (ferric ion reducing antioxidant power) assay; conditions: 10 min, 593 nm; mean ± SD
Experimental: as §1
The FRAP method is based on measuring the ability of antioxidants to reduce ferric 2,4,6-tris(2-pyridyl)-1,3,5-triazine [Fe(III)-TPTZ] in the blue colored ferrous form, which absorbs light at λ = 593 nm. The Fe(III)-TPTZ reagent was prepared as a mixture of acetate buffer (pH 3.6), 10 mM TPTZ in 40 mM HCl, and 20 mM FeCl3 in the ratio of 10:1:1 (v/v/v). The FRAP reagent was freshly prepared before each experiment. The samples (0.1 mL) were mixed in polystyrene cuvettes with 3 mL of ferric complex and 0.9 mL of distilled water. The absorbance was measured after 10 min at λ = 593 nm.

[4] = tested on: MV-4-11 (biphenotypic B myelomonocytic leukemia); assay: Antiproliferative activity in vitro, MTT assay; format: cell-based, human; conditions: Homo sapiens, MV4-11, 72 h exposure, read-out: IC50 ± SD MV-4-11
[5] = tested on: HLMEC (lung microvascular endothelial cells); assay: Antiproliferative activity in vitro, SRB assay; format: cell-based, human; conditions: Homo sapiens, Endothelial cell; 72 h exposure, SRB; normal cell line; read-out: IC50 ± SD HLMEC
Experimental: (§2) The antiproliferative studies were performed in vitro using human cancer cell lines—MV-4-11 (biphenotypic B myelomonocytic leukemia), MCF7 (breast carcinoma), LoVo (colon cancer), LoVo/DX (colon cancer doxorubicin-resistant), and DU 145 (prostate cancer)—and normal human cell lines—MCF 10A (breast cells) and HLMEC (lung microvascular endothelial cells). The cell lines MV-4-11, LoVo, DU 145, and MCF 10A were obtained from the American Type Culture Collection (Rockville, Maryland, USA), MCF7 from the European Collection of Authenticated Cell Cultures (ECACC, Salisbury, UK), LoVo/DX courtesy of Professor E. Borowski (Technical University of Gdansk, Poland), and HLMECs (which had been already immortalized by transfection with pSV3-neoplasmid containing large T-antigen gene) were the kind gift of Professor Claudine Kieda (Center for Molecular Biophysics, Orleans, France). The cell lines are being maintained in the Hirszfeld Institute of Immunology and Experimental Therapy, Polish Academy of Sciences (HIIET, PAS), Wroclaw, Poland. All cell lines were grown at 37 °C with 5% CO2 humidified atmosphere. The MV-4-11 cells were cultured in RPMI 1640 medium with GlutaMAX (Gibco, Scotland, UK), supplemented with 1 mM sodium pyruvate and 10% fetal bovine serum (both from Sigma-Aldrich, Poznan, Poland). The MCF7 cells were cultured in Eagle medium (HIIET, PAS, Wroclaw, Poland) supplemented with 2 mM L-glutamine, 10% fetal bovine serum, 1% nonessential amino acid solution, and 0.8 mg/L of insulin (all from Sigma-Aldrich, Poznan, Poland). The LoVo and LoVo/DX cells were cultured in a 1:1 (v/v) mixture of RPMI 1640 and Opti-MEM (both HIIET, PAS, Wroclaw, Poland), supplemented with 1 mM sodium pyruvate, 2 mM L-glutamine, and 5% fetal bovine serum (all from Sigma-Aldrich, Poznan, Poland). For LoVo/DX cells, additionally 10 µg/100 mL of doxorubicin (Accord Healthcare) was added to the medium. DU 145 cells were cultured in Eagle medium (HIIET, PAS, Wroclaw, Poland) supplemented with 1 mM sodium pyruvate, 4 mM L-glutamine, and 10% fetal bovine serum (all from Sigma-Aldrich, Poznan, Poland). The MCF 10A cells were cultured in the F-12 nutrient mixture (Gibco, Scotland, UK), supplemented with 5% horse serum (Gibco, Scotland, UK), 0.05 μg/mL of cholera toxin (Vibrio cholerae), 0.5 μg/mL of hydrocortisone, 10 μg/mL of insulin, and 20 ng/mL of human epidermal growth factor (all from Sigma-Aldrich, Poznan, Poland). The HLMEC cells were cultured in the RPMI 1640 medium (HIIET, PAS, Wroclaw, Poland) with the addition of 2 mM L-glutamine (Sigma-Aldrich, Poznan, Poland) and 10% fetal bovine serum (GE Healthcare). All culture media were supplemented with 100 units/mL penicillin (Polfa Tarchomin S.A., Warsaw, Poland) and 100 µg/mL streptomycin (Sigma-Aldrich, Poznan, Poland). Twenty-four hours before addition of the tested agents, the cells were plated in 96-well plates (Sarstedt, Germany) at a density of 1 × 10^4 (1 × 10^3 for HLMEC and 0.75 × 10^4 for MCF7) cells per well in 100 μL of culture medium.
(§3) Tested compounds were dissolved in DMSO and then diluted in a 1:1 (v/v) mixture of RPMI 1640 (HIIET, PAS, Wroclaw, Poland) and Opti-MEM (Gibco, Scotland, UK) medium supplemented with 2 mM L-glutamine (Sigma-Aldrich, Poznan, Poland), 5% fetal bovine serum (GE Healthcare), 100 units/mL penicillin (Polfa Tarchomin S.A., Warsaw, Poland), and 100 µg/mL streptomycin (Sigma-Aldrich, Poznan, Poland). The antiproliferative effects of the flavonoids were examined after 72 h of exposure of the cultured cells to varying concentrations of the tested agents (from 0.1 to 100 μg/mL) using the MTT (for MV-4-11 cells) or SRB assay described below. Cisplatin (chemotherapy drug used to treat a number of cancers) was used as a positive control. The results are presented as an inhibitory concentration 50 (IC50), which is the concentration of the tested agent that inhibits proliferation of the cell population by 50%. IC50 values for each experiment were calculated separately. […]

LoVo (colon cancer) = assay: Antiproliferative activity in vitro, SRB assay; format: cell-based, human; conditions: 72 h exposure, SRB, read-out: IC50 ± SD LoVo
Experimental: as §2, §3

MCF 10A (breast cells) = assay: Antiproliferative activity in vitro, SRB assay; format: cell-based, human; conditions: Homo sapiens, MCF-10A; 72 h exposure, SRB; normal cell line; read-out: IC50 ± SD MCF 10A
Experimental: as §2, §3

MCF7 (breast carcinoma) = assay: Antiproliferative activity in vitro, SRB assay; format: cell-based, human; conditions: Homo sapiens, MCF7; 72 h exposure, SRB; read-out: IC50 ± SD MCF7
Experimental: as §2, §3

[6] = tested on: LoVo/DX (colon cancer doxorubicin-resistant); assay: Antiproliferative activity in vitro, SRB assay; format: cell-based, human; conditions: Homo sapiens, LoVo/DX, 72 h exposure, read-out: IC50 ± SD LoVo/DX
DU 145 (prostate cancer) = assay: Antiproliferative activity in vitro, SRB assay; format: cell-based, human; conditions: Homo sapiens, DU-145; 72 h exposure, SRB; read-out: IC50 ± SD DU 145
[7] = Stability of flavonoids in DMSO (control), HPLC; format: physicochemical; conditions: 3 h of incubation
Experimental: (§4) Flavonoids were dissolved (as described in Section 2.4) to the concentration of 100 µg/mL. The solutions corresponding to the solutions before the administration to the cell cultures were incubated in 96-well plates for 3 h and transferred to microtubes containing 400 µL of cold methanol (−20 °C) and kept at −20 °C for 1 h. After centrifugation at 12,000× g for 10 min, samples were analyzed by HPLC. Control experiments were also carried out to determine the stability of flavonoids in DMSO under analogous conditions.

[8] = Stability of flavonoids before administration to the cell cultures (diluted in RPMI 1640/Opti-MEM medium), HPLC; format: physicochemical; conditions: 100 µg/mL, medium with 2 mM L-glutamine, 5% fetal bovine serum, penicillin, streptomycin; 3 h incubation
Experimental: Tested compounds were dissolved in DMSO and then diluted in a 1:1 (v/v) mixture of RPMI 1640 (HIIET, PAS, Wroclaw, Poland) and Opti-MEM (Gibco, Scotland, UK) medium supplemented with 2 mM L-glutamine (Sigma-Aldrich, Poznan, Poland), 5% fetal bovine serum (GE Healthcare), 100 units/mL penicillin (Polfa Tarchomin S.A., Warsaw, Poland), and 100 µg/mL streptomycin (Sigma-Aldrich, Poznan, Poland). The antiproliferative effects of the flavonoids were examined after 72 h of exposure of the cultured cells to varying concentrations of the tested agents (from 0.1 to 100 μg/mL) using the MTT (for MV-4-11 cells) or SRB assay described below. Cisplatin (chemotherapy drug used to treat a number of cancers) was used as a positive control. The results are presented as an inhibitory concentration 50 (IC50), which is the concentration of the tested agent that inhibits proliferation of the cell population by 50%. IC50 values for each experiment were calculated separately.
as §4

| Compound | IC50 [4] [µM] | IC50 (LoVo (colon cancer)) [µM] | IC50 (LoVo (colon cancer); Homo sapiens, LoVo, 72 h) [µM] | IC50 (MCF7 (breast carcinoma)) [µM] | IC50 [6] [µM] | IC50 (DU 145 (prostate cancer)) [µM] | compound observed after incubation in DMSO [7] | stability after dilution with 1:1 RPMI 1640/Opti-MEM medium [8] | TEAC ABTS [1] | TEAC DPPH [2] | TEAC FRAP [3] | IC50 [5] [µM] | IC50 (MCF 10A (breast cells)) [µM] |
| --- | --- | --- | --- | --- | --- | --- | --- | --- | --- | --- | --- | --- | --- |
| O=c1cc(-c2ccc(O)c(O)c2)oc2cc(O)cc(O)c12 [Compound 3, luteolin] | 8.73 ± 2.23 | 13.5 ± 0.65 | 14 to 15 | 25.5 ± 6.33 | 13.7 ± 1.65 | 21.9 ± 6.11 | – | – | 16.645 ± 0.897 µmol trolox per µmol of tested | 10.50 ± 0.117 µmol trolox per µmol of tested | 17.686 ± 0.327 µmol trolox per µmol of tested | 9.22 ± 0.64 | 33.1 ± 10.3 |
| O=C1C[C@@H](c2ccccc2)Oc2cc(O)cc(O)c21 [Compound 5, Pinocembrin] | 99.1 ± 34.1 | – | 116 ± 10.6 | 148 ± 6.57 | 67 ± 15.8 | 119 ± 22.4 | – | – | 0.165 ± 0.009 µmol trolox per µmol of tested | 0.005 ± 0.001 µmol trolox per µmol of tested | – | 96.6 ± 7.23 | 125 ± 5.77 |
| COc1ccc([C@@H]2CC(=O)c3c(O)cc(O)cc3O2)cc1O [Compound 8, hesperetin] | 140 ± 12.9 | – | 104 ± 5.55 | 167 ± 13.1 | 77.2 ± 19.4 | 215 ± 32.1 | – | – | 13.254 ± 0.123 µmol trolox per µmol of tested | 0.098 ± 0.002 µmol trolox per µmol of tested | 4.025 ± 0.175 µmol trolox per µmol of tested | 98.3 ± 7.62 | 207 ± 23.4 |

More lines, main results first:

| IC50 [4] [µM] | IC50 (LoVo (colon cancer)) [µM] | IC50 (LoVo (colon cancer); Homo sapiens, LoVo, 72 h) [µM] | IC50 (MCF7 (breast carcinoma)) [µM] | IC50 [6] [µM] | IC50 (DU 145 (prostate cancer)) [µM] | compound observed after incubation in DMSO [7] | stability after dilution with 1:1 RPMI 1640/Opti-MEM medium [8] | Compound | TEAC ABTS [1] | TEAC DPPH [2] | TEAC FRAP [3] | IC50 [5] [µM] | IC50 (MCF 10A (breast cells)) [µM] |
| --- | --- | --- | --- | --- | --- | --- | --- | --- | --- | --- | --- | --- | --- |
| – | – | – | – | – | – | over 99% | complete decomposition | O=C1C[C@@H](c2ccc(O)cc2)Oc2c(O)c(O)cc(O)c21 [Compound 14, 8-hydroxynaringenin] | – | – | – | – | – |
| – | – | – | – | – | – | over 99% | complete decomposition | O=C1C[C@@H](c2ccc(O)cc2)Oc2cc(O)c(O)c(O)c21 [Compound 15, 6-hydroxynaringenin] | – | – | – | – | – |
